The record followed here is patent publication US20080009418A1, “Selective Inhibitors” (Alchemia LTD., priority 2004, published 2008).

Assay [1] deals with T1, Human δ-opioid (DOP) (Homo sapiens, UniProt P41143).
T1 construct: purchased Perkin Elmer Biosignal
The assay is described as follows: Radioligand binding, human δ-opioid (DOP) membranes, FlashPlate, [3H]-Bremazocine. The conditions noted are these: compound at 10 μM, [3H]-Bremazocine. The essentials: (§1)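 Cloned human receptor membranes were coated onto FlashPlate wells and incubated with radioligand and compound (added from a 0.5 mM DMSO daughter plate) for 1 hour at room temperature in the dark. Scintillation counting gave percent inhibition, with DMSO defining total and reference ligand defining non-specific binding.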

For assay [2], the target named is T2, Human κ-Opioid (KOP) (Homo sapiens, UniProt P41145).
T2 construct: purchased Perkin Elmer Biosignal
The assay is described as follows: Radioligand binding, human κ-opioid (KOP) membranes, filtration, [3H]-Diprenorphine. The conditions noted are these: compound at 10 μM, [3H]-Diprenorphine. Summed up: (§2)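 Percent inhibition of radioligand binding measured on recombinant human membranes: NK1 with [125I]-Substance P, KOP with [3H]-Diprenorphine. Incubation 1 h at room temperature, then harvest onto 0.3% PEI-soaked filters, cold Tris-HCl pH 7.4 washes and scintillation counting; non-specific binding from reference ligand wells.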

The target in assay [3] is T3, Human Melanocortin (MC3) (Homo sapiens, UniProt P41968).
T3 construct: purchased Perkin Elmer Biosignal
The assay is described as follows: Radioligand binding, human melanocortin MC3 membranes, FlashPlate, [125I]-NDP-αMSH. The settings on record: compound at 10 μM, [125I]-NDP-αMSH. Summed up:
as §1

Assay [4] has as its target T4, Human Melanocortin (MC4) (Homo sapiens, UniProt P32245).
T4 construct: purchased Perkin Elmer Biosignal
The assay is described as follows: Radioligand binding, human melanocortin MC4 membranes, FlashPlate, [125I]-NDP-αMSH. The settings on record: compound at 10 μM, [125I]-NDP-αMSH. The essentials: as §1

The target in assay [5] is T5, Human melanocortin (MC5) (Homo sapiens, UniProt P33032).
T5 construct: purchased Perkin Elmer Biosignal
The assay is described as follows: Radioligand binding, human melanocortin MC5 membranes, FlashPlate, [125I]-NDP-αMSH. The settings on record: compound at 10 μM, [125I]-NDP-αMSH. The essentials:
as §1

The target of assay [6] is T6, Human melanin-concentrating hormone (MCH1) (Homo sapiens, UniProt Q99705).
T6 construct: purchased Perkin Elmer Biosignal
The assay is described as follows: Radioligand binding, human melanin-concentrating hormone MCH1 membranes, FlashPlate, [125I]-S36057. The conditions noted are these: compound at 10 μM; for A6: inhibition of radioligand binding, human melanin-concentrating hormone (MCH1): [125I]-S36057. Summed up:
as §1

Assay [7] concerns the target T7, Human μ-opioid (MOP) (Homo sapiens, UniProt P35372).
T7 construct: purchased Perkin Elmer Biosignal
The assay is described as follows: Radioligand binding, human μ-opioid (MOP) membranes, FlashPlate, [3H]-Naloxone. The conditions noted are these: compound at 10 μM, [3H]-Naloxone. Summed up:
as §1

For assay [8], the target named is T8, Human neurokinin (NK1) (Homo sapiens, UniProt P25103).
T8 construct: purchased Perkin Elmer Biosignal
The assay is described as follows: Radioligand binding, human neurokinin NK1 membranes, filtration, [125I]-Substance P. The conditions noted are these: compound at 10 μM, [125I]-Substance P. The essentials: as §2

Assay [9] has as its target T9, Human neuropeptide Y (NPY-Y1) (Homo sapiens, UniProt P25929).
T9 construct: purchased Perkin Elmer Biosignal
T9 sequence (P25929 1-384): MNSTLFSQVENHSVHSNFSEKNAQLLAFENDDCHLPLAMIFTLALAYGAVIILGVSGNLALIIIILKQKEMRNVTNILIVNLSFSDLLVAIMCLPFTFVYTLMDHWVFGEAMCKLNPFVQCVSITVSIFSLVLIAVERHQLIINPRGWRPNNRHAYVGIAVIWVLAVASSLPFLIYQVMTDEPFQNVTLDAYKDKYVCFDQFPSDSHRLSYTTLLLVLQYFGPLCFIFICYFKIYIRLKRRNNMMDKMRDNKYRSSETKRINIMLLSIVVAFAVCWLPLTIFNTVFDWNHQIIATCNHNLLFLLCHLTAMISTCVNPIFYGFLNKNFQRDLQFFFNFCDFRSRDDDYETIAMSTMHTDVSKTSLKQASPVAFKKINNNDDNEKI
The assay is described as follows: Radioligand binding, human neuropeptide Y NPY-Y1 membranes, FlashPlate, [125I]-PYY. The conditions noted are these: compound at 10 μM, [125I]-PYY. Summed up: as §1

Assay [10] has as its target T10, Human opioid (ORL1) (Homo sapiens, UniProt P41146).
T10 construct: purchased Perkin Elmer Biosignal
The assay is described as follows: Radioligand binding, human opioid ORL1 membranes, FlashPlate, [125I]-Nociceptin. The conditions noted are these: compound at 10 μM, [125I]-Nociceptin. Summed up: as §1

For assay [11], the target named is T11, Mouse urotensin (mUR2) (Mus musculus, UniProt Q8VIH9).
T11 construct: purchased Perkin Elmer Biosignal
T11 sequence (Q8VIH9 1-385): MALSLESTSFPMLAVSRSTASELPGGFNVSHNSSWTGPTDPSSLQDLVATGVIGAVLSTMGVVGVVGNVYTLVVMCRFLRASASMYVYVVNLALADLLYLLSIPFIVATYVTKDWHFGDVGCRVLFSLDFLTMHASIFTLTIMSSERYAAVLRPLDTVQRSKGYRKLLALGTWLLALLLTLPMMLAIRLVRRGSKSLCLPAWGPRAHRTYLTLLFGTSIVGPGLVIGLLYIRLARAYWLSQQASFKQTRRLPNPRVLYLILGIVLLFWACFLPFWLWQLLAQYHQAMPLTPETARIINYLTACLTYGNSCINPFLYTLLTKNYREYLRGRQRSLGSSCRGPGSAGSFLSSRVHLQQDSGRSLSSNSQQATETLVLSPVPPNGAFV
The assay is described as follows: Radioligand binding, mouse urotensin mUR2 membranes, FlashPlate, [125I]-Urotensin II. The settings on record: compound at 10 μM, [125I]-Urotensin II. The essentials: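 Cloned mouse urotensin (mUR2) receptor membranes from Perkin Elmer Biosignal were immobilized in FlashPlate microplates using a proprietary coating. Each well got 19.5 μl buffer, then 0.5 μl of DMSO, reference ligand, or compound. Adding 5 μl of [125I]-Urotensin II, diluted to 5× final concentration in binding buffer, started binding. Plates were sealed with TopSeal-A and incubated 1 hour at room temperature in the dark. Wells were counted for 30 seconds each on a TopCount after a 60-second delay, and percentage inhibition was calculated.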

T1 sequence (P41143 whole entry): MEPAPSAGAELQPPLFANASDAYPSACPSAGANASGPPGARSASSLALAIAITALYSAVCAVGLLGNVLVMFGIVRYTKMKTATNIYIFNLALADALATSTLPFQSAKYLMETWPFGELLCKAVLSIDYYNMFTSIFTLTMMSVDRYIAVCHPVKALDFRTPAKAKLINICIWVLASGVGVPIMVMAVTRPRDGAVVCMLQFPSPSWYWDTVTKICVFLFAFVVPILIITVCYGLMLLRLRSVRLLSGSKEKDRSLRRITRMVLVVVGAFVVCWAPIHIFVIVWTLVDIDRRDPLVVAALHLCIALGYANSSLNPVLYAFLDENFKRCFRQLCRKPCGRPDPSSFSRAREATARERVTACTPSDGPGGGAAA
T10 sequence (P41146 whole entry): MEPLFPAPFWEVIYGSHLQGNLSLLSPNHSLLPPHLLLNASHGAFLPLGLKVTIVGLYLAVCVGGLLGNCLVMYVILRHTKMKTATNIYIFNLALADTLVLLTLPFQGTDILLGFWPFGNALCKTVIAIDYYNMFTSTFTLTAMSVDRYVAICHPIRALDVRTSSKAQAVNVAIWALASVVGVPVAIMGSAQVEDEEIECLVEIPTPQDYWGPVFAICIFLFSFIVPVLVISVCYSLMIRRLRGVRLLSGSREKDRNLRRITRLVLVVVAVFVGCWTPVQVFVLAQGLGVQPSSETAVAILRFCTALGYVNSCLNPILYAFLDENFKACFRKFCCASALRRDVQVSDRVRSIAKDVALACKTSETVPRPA
T5 sequence (P33032 whole entry): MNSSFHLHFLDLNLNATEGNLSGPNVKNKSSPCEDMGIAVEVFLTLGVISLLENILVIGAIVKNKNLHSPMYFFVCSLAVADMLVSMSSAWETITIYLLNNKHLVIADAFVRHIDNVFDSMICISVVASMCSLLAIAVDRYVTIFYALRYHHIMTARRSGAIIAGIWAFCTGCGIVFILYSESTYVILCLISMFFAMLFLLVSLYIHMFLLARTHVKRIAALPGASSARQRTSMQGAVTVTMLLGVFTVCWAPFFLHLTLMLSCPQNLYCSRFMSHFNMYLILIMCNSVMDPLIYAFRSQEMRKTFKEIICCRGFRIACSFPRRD
T6 sequence (Q99705 whole entry): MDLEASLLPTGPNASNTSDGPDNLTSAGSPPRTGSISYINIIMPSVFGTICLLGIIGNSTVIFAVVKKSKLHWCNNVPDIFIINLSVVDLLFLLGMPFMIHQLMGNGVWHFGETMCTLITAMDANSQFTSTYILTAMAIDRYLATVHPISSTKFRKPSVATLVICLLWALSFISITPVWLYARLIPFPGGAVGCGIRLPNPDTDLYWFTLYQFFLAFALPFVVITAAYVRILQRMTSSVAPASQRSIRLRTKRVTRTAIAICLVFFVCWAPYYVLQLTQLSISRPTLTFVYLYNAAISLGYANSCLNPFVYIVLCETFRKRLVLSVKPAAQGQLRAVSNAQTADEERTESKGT
T4 sequence (P32245 whole entry): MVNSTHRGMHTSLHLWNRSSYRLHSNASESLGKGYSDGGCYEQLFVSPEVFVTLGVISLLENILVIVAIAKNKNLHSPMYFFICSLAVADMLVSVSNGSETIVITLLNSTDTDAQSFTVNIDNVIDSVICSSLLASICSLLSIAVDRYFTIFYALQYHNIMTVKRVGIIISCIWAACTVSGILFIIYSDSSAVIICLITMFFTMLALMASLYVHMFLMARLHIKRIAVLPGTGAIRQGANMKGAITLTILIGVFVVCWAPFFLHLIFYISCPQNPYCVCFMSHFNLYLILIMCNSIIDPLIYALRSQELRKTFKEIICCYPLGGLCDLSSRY
T7 sequence (P35372 whole entry): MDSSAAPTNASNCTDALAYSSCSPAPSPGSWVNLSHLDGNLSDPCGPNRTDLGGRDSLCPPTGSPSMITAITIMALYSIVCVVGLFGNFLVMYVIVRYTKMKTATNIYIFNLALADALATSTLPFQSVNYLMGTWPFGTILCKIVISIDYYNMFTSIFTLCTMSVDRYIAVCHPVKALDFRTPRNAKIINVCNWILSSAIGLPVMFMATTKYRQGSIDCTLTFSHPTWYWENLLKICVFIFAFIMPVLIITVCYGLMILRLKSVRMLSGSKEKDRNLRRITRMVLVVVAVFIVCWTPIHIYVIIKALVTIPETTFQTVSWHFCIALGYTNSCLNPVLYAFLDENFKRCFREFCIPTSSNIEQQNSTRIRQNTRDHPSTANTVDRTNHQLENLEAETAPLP
T2 sequence (P41145 whole entry): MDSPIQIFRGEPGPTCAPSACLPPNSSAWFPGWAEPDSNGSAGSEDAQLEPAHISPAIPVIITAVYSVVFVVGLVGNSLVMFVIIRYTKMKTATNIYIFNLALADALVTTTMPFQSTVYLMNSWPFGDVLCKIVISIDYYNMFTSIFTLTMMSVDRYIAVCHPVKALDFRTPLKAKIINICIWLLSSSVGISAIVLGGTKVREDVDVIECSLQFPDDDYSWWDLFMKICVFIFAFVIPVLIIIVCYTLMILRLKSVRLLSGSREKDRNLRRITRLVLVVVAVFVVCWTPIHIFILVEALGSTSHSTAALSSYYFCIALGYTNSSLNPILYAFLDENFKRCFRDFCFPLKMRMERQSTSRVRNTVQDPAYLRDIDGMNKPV
T8 sequence (P25103 whole entry): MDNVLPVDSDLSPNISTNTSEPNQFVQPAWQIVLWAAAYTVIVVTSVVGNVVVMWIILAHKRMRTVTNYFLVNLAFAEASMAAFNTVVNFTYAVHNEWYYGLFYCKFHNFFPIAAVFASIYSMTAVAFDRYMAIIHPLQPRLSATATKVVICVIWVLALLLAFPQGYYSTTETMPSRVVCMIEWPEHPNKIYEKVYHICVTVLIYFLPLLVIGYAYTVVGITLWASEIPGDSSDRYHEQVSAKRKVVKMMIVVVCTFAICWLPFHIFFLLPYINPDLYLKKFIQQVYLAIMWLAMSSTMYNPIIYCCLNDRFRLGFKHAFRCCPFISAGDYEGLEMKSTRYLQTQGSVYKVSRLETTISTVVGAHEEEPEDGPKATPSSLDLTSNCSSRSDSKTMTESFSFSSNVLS
T3 sequence (P41968 whole entry): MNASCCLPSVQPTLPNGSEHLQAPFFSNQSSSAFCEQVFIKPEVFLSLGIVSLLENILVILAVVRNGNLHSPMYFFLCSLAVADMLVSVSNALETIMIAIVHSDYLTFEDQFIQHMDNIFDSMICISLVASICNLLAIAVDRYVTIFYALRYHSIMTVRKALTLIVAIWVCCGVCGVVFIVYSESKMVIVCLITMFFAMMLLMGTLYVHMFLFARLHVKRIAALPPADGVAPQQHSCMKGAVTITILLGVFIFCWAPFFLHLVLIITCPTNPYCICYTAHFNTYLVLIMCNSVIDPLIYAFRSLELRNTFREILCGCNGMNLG

Consider `NCCC(=O)NC1C(OCc2ccc(Cl)cc2)OC(COCc2ccccc2)C(O)C1OCc1ccc(Cl)cc1` (single isomer, unassigned) [compound 474], for which the “A1: inhibition of radioligand binding” value in [1] (human DOP membranes) is given as “− (“−” indicates less than 50% inhibition at 10 μM)”. In addition, the “A2: inhibition of radioligand binding” value in assay [2] (human KOP membranes) is “− (“−” indicates less than 50% inhibition at 10 μM)”. The “A3: inhibition of radioligand binding” value in assay [3] (human MC3 membranes) is “− (“−” indicates less than 50% inhibition at 10 μM)”. The “A4: inhibition of radioligand binding” value in [4] (human MC4 membranes) is “− (“−” indicates less than 50% inhibition at 10 μM)”. For the same molecule, the “A5: inhibition of radioligand binding” value in assay [5] (human MC5 membranes, 10 µM) was “− (“−” indicates less than 50% inhibition at 10 μM)”. The “A6: inhibition of radioligand binding” value in [6] ([125I]-S36057, human MCH1 membranes, 10 µM) is given as “− (“−” indicates less than 50% inhibition at 10 μM)”. In assay [7] (human MOP membranes, 10 µM), the “A7: inhibition of radioligand binding” value was “− (“−” indicates less than 50% inhibition at 10 μM)”. The “A8: inhibition of radioligand binding” value in [8] (human NK1 membranes) is “+ (“+” indicates greater than 50% inhibition at 10 μM)”. The “A9: inhibition of radioligand binding” value in assay [9] (human NPY-Y1 membranes) is reported as “− (“−” indicates less than 50% inhibition at 10 μM)”. Moreover, in [10] (human ORL1 membranes, 10 µM), the “A10: inhibition of radioligand binding” value is listed as “+ (“+” indicates greater than 50% inhibition at 10 μM)”. The “A11: inhibition of radioligand binding” value in [11] (mouse mUR2 membranes) is “− (“−” indicates less than 50% inhibition at 10 μM)”.

`NCCC(=O)NC1C(OCc2ccc(Cl)cc2)OC(COCc2ccc3ccccc3c2)C(O)C1OCc1ccc2ccccc2c1` (single isomer, unassigned) [compound 478]: the “A1: inhibition of radioligand binding, human δ-opioid (DOP)” value (from here on “A1: inhibition … human δ-opioid (DOP)”) in assay [1] was “− (“−” indicates less than 50% inhibition at 10 μM)”. Further, the “A2: inhibition of radioligand binding, human κ-opioid (KOP)” value (from here on “A2: inhibition … (KOP)”) in assay [2] is “− (“−” indicates less than 50% inhibition at 10 μM)”. Also, the “A3: inhibition of radioligand binding, human melanocortin (MC3)” value (“A3: inhibition … (MC3)” for short) in assay [3] (10 µM) is on record as “+ (“+” indicates greater than 50% inhibition at 10 μM)”. Also, the “A4: inhibition of radioligand binding, human melanocortin (MC4)” value (“A4: inhibition … (MC4)” for short) in assay [4] (10 µM) was “+ (“+” indicates greater than 50% inhibition at 10 μM)”. Further, the “A5: inhibition of radioligand binding, human melanocortin (MC5)” value (“A5: inhibition … (MC5)” for short) in [5] is listed as “+ (“+” indicates greater than 50% inhibition at 10 μM)”. The “A6: inhibition of radioligand binding, human melanin-concentrating hormone (MCH1)” value (“A6: inhibition of radioligand binding … (MCH1)” for short) in [6] (10 µM) was “+ (“+” indicates greater than 50% inhibition at 10 μM)”. The “A7: inhibition of radioligand binding, human μ-opioid (MOP)” value (“A7: inhibition … (MOP)” for short) in assay [7] is “− (“−” indicates less than 50% inhibition at 10 μM)”. Moreover, in assay [8], the “A8: inhibition of radioligand binding, human neurokinin (NK1)” value (“A8: inhibition … (NK1)” for short) is “+ (“+” indicates greater than 50% inhibition at 10 μM)”. Besides, the “A9: inhibition of radioligand binding, human neuropeptide Y (NPY-Y1)” value (“A9: inhibition … (NPY-Y1)” for short) in assay [9] is “− (“−” indicates less than 50% inhibition at 10 μM)”. The “A10: inhibition of radioligand binding, human opioid (ORL1)” value (“A10: inhibition … (ORL1)” below) in assay [10] (10 µM) is “− (“−” indicates less than 50% inhibition at 10 μM)”. Also, the “A11: inhibition of radioligand binding, mouse urotensin (mUR2)” value (from here on “A11: inhibition … (mUR2)”) in assay [11] is “− (“−” indicates less than 50% inhibition at 10 μM)”.

In the case of `COC[C@H]1OC(OCCc2ccccc2)[C@H](NC(=O)CCCN)[C@@H](OCc2ccc3ccccc3c2)[C@@H]1O` (single isomer, unassigned) [compound 346], the “A1: inhibition … human δ-opioid (DOP)” value in assay [1] was “− (“−” indicates less than 50% inhibition at 10 μM)”. Also, the “A2: inhibition … (KOP)” value in [2] (10 µM) was “+ (“+” indicates greater than 50% inhibition at 10 μM)”. Further, the “A3: inhibition … (MC3)” value in assay [3] (10 µM) is reported as “+ (“+” indicates greater than 50% inhibition at 10 μM)”. Further, the “A4: inhibition … (MC4)” value in assay [4] (10 µM) was “+ (“+” indicates greater than 50% inhibition at 10 μM)”. Moreover, the “A5: inhibition … (MC5)” value in assay [5] (10 µM) is recorded as “+ (“+” indicates greater than 50% inhibition at 10 μM)”. The “A6: inhibition of radioligand binding … (MCH1)” value in assay [6] (10 µM) is “+ (“+” indicates greater than 50% inhibition at 10 μM)”. Also, the “A7: inhibition … (MOP)” value in assay [7] (10 µM) is “+ (“+” indicates greater than 50% inhibition at 10 μM)”. Besides, the “A8: inhibition … (NK1)” value in assay [8] is on record as “+ (“+” indicates greater than 50% inhibition at 10 μM)”. For the same molecule, the “A9: inhibition … (NPY-Y1)” value in assay [9] is given as “− (“−” indicates less than 50% inhibition at 10 μM)”. Besides, in assay [10] (10 µM), the “A10: inhibition … (ORL1)” value was “+ (“+” indicates greater than 50% inhibition at 10 μM)”. Also, the “A11: inhibition … (mUR2)” value in [11] (10 µM) is given as “+ (“+” indicates greater than 50% inhibition at 10 μM)”.

In the case of `CSC1OC(COCc2ccccc2)C(O)C(OCc2ccc3ccccc3c2)C1NC(=O)CCCNC(=N)N` (centres unmarked) [compound 305], the “A1: inhibition … human δ-opioid (DOP)” value in assay [1] is on record as “− (“−” indicates less than 50% inhibition at 10 μM)”. Besides, the “A2: inhibition … (KOP)” value in [2] was “− (“−” indicates less than 50% inhibition at 10 μM)”. The “A3: inhibition … (MC3)” value in assay [3] was “− (“−” indicates less than 50% inhibition at 10 μM)”. For the same molecule, in [4], the “A4: inhibition … (MC4)” value is listed as “− (“−” indicates less than 50% inhibition at 10 μM)”. In addition, in assay [5], the “A5: inhibition … (MC5)” value is reported as “+ (“+” indicates greater than 50% inhibition at 10 μM)”. Also, the “A6: inhibition of radioligand binding … (MCH1)” value in assay [6] is “− (“−” indicates less than 50% inhibition at 10 μM)”. In addition, the “A7: inhibition … (MOP)” value in assay [7] is listed as “− (“−” indicates less than 50% inhibition at 10 μM)”. The “A8: inhibition … (NK1)” value in assay [8] is recorded as “+ (“+” indicates greater than 50% inhibition at 10 μM)”. Also, the “A9: inhibition … (NPY-Y1)” value in [9] is “− (“−” indicates less than 50% inhibition at 10 μM)”. In assay [10], the “A10: inhibition … (ORL1)” value was “− (“−” indicates less than 50% inhibition at 10 μM)”. For the same molecule, the “A11: inhibition … (mUR2)” value in [11] is “− (“−” indicates less than 50% inhibition at 10 μM)”.
